From US8163909B2, “Substituted hydroxyethyl amine compounds as beta-secretase modulators and methods of use” (Amgen Inc., priority 2007, dated 2012) come the findings set out here.

Assay [1] addresses Beta Secretase enzyme (BACE) (Homo sapiens, UniProt P56817). In words: In vitro enzymatic BACE FRET (fluorescence resonance energy transfer) assay.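 Also: fluorescence read after 1 h with 50 nM quenched peptide substrate spanning the BACE cleavage site, in pH 4.2 acetate buffer containing 10% DMSO and nonionic detergent.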 In kind it is biochemical.
Assay [2] relates to Aβ40 in conditioned medium of cells stably expressing Amyloid Precursor Protein (APP). In words: In vitro BACE cell-based assay (Aβ40 in conditioned medium, sandwich ELISA).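 Also: compounds added as a dilution series, secreted peptide quantified by europium time-resolved fluorescence readout, potency fitted from percent of control versus compound concentration.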
Where [3] appears, read: Table 1, read-out: BACE1 FRET assay.
Setting [4] is: Homo sapiens, HEK293, Table 1, HEK cells, read-out: HEK cell assay.
Setting [5] is: BACE enzyme assay, read-out: BACE1 FRET assay (IC50).
Setting [6] is: Homo sapiens, HEK293, HEK cells, cell-based assay, read-out: HEK cell assay (IC50).
Setting [7] is: BACE enzyme FRET assay, read-out: BACE1 FRET assay (IC50).
The mark [8] stands for this setting: HEK cells, cell-based assay, read-out: HEK cell assay (IC50).
Where [9] appears, read: BACE enzyme assay, IC50's in uM, read-out: BACE1 FRET assay.
[10] abbreviates: Homo sapiens, HEK293, HEK cell-based assay, IC50's in uM, read-out: HEK cell assay.

Read-outs that look alike come from different tables or passages of the source.

Chain of Beta Secretase enzyme (BACE) (P56817 46-501): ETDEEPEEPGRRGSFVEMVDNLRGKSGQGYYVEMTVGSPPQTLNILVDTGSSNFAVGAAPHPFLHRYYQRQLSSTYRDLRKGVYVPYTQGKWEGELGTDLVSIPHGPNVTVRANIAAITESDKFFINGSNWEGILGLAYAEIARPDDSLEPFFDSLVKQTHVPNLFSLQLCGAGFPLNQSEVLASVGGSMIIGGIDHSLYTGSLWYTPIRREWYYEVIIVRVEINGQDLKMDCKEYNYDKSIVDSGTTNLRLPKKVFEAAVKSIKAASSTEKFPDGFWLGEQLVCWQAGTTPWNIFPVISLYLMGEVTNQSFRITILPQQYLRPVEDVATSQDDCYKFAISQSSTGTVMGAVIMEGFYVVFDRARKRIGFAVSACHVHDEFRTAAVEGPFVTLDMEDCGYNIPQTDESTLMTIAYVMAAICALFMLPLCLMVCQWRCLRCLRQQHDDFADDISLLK

For `COCC(=O)N[C@@H](Cc1ccccc1)[C@H](O)CN[C@H]1CC2(CCC2)Oc2ncc([C@H](F)C(C)(C)C)cc21` [compound 356], the IC50 in assay [1] (setting [3]) is 0.00317 µM; in assay [2] (setting [4]), 0.00646 µM.
Take `COc1cc(C[C@H](NC(=O)C(F)(F)F)[C@H](O)CN[C@H]2CC3(CCC3)Oc3ncc(CC(C)(C)C)cc32)ccc1F` [compound 80]: the IC50 in assay [1] (setting [5]) worked out at 0.0123 µM; in assay [2] (setting [6]), 0.125 µM.
Consider `CC(C)(C)Cc1cnc2c(c1)[C@@H](NC[C@@H](O)[C@H](Cc1cc(F)cc(F)c1)NC(=O)OCc1cncs1)CC1(CCC1)O2` [compound 93], for which the IC50 in assay [1] (setting [5]) was found to be 0.00495 µM; in assay [2] (setting [6]) it was 0.0792 µM.
“(2R)—N-((1S,2R)-1-((4-fluorophenyl)methyl)-2-hydroxy-3-(((4′S)-6′-(3,3,3-trifluoropropyl)-3′,4′-dihydrospiro[cyclobutane-1,2′-pyrano[2,3-b]pyridin]-4′-yl)amino)propyl)-2-(methyloxy)propanamide ′(2S)—N-((1S,2R)-1-((4-fluorophenyl)methyl)-2-hydroxy-3-(((4′S)-6′-(3,3,3-trifluoropropyl)-3′,4′-dihydrospiro[cyclobutane-1,2′-pyrano[2,3-b]pyridin]-4′-yl)amino)propyl)-2-(methyloxy)propanamide [compound 192]”: the IC50 in assay [1] (setting [7]) was 1.02 µM; in assay [2] (setting [8]) it was 2.03 µM.
On to `COCC(=O)N[C@@H](Cc1ccc(F)cc1)[C@H](O)CN[C@H]1CC2(CCC2)Oc2ncc([C@H](O)C(C)(C)C)cc21` [compound 188], for which the values for the IC50 in assay [1] (setting [7]) and in assay [2] (setting [6]) were 0.0612 µM and 1.66 µM, respectively.
In the case of `C=Cc1cccc(C[C@H](NC(=O)COC)[C@H](O)CN[C@H]2CC3(CCC3)Oc3ncc(CC(C)C)cc32)c1` [compound 832], the IC50 came to 0.007 µM in assay [1] (setting [9]) and 0.038 µM in assay [2] (setting [10]).
Turning to `COCC(=O)N[C@@H](Cc1cccc(F)c1)[C@H](O)CN[C@H]1CC2(CCC2)Oc2ncc(C[C@@H](C)C(F)(F)F)cc21` [compound 326], the IC50 in assay [1] (setting [3]) amounted to 0.00777 µM; in assay [2] (setting [4]), 0.0271 µM.
As for `CC(C)Cc1cnc2c(c1)[C@@H](NC[C@@H](O)[C@H](Cc1ccc3c(c1)OCO3)NC(=O)[C@H](C)F)CC1(CCC1)O2` [compound 601], the IC50 amounted to 0.044 µM in assay [1] (read-out: BACE1 FRET assay (IC50)) and 0.062 µM in assay [2] (Homo sapiens, HEK293, HEK cells, read-out: HEK cell assay (IC50)).
On to `CO[C@H](C)C(=O)N[C@@H](Cc1ccc2c(c1)OC(F)(F)O2)[C@H](O)CN[C@H]1CC2(CCC2)Oc2ncc(CC(C)(C)C)cc21` [compound 295], for which the IC50 was 0.0969 µM in assay [1] (setting [7]) and 1.33 µM in assay [2] (setting [6]).
For the molecule `CCC(=O)N[C@@H](Cc1ccc2c(c1)OCO2)[C@H](O)CN[C@H]1CC2(CCC2)Oc2ncc(CC(C)(C)C)cc21` [compound 828], the figures for the IC50 in assay [1] (setting [9]) and in assay [2] (setting [10]) were 0.012 µM and 0.014 µM, respectively.
For the molecule `CNc1nc(CC(C)(C)C)cc2c1OC1(CCC1)C[C@@H]2NC[C@@H](O)[C@H](Cc1cccc(F)c1)NC(=O)COC` [compound 148], the IC50 in assay [1] (setting [5]) is 0.0387 µM; in assay [2] (setting [6]) it was 0.00654 µM.
The corresponding values for `CC(C)(C)Cc1cnc2c(c1)[C@@H](NC[C@@H](O)[C@H](Cc1cc(F)cc(F)c1)NC(=O)C(F)(F)Cl)CC1(CCC1)O2` [compound 96] are 0.00023 µM and 0.0432 µM.
As for `CC(=O)N[C@@H](Cc1ccc(F)c(F)c1)[C@H](O)CN[C@H]1CC2(CCC2)Oc2ncc([C@H](F)C(C)(C)C)cc21` [compound 177], the IC50 in assay [1] (setting [5]) is 0.00217 µM; in assay [2] (setting [6]) it was 0.00934 µM.
For `CC(=O)N[C@@H](Cc1ccc(F)cc1)[C@H](O)CN[C@H]1CC2(CCC2)Oc2ncc(NC(=O)C(C)(C)C)cc21` [compound 84], in that order: 4.87 µM and more than 10 µM.
For `CC(C)(C)Cc1cnc2c(c1)[C@@H](NC[C@@H](O)[C@H](Cc1ccc(F)cc1)NC(=O)C(F)C(F)(F)F)CC1(CCC1)O2` (stereo partly shown) [compound 158], in that order: 0.0504 µM and 0.241 µM.
As to “N-((1S,2R)-1-(1,3-benzodioxol-5-ylmethyl)-3-(((1r,3R,4′S)-6′-(2,2-dimethylpropyl)-3-hydroxy-3′,4′-dihydrospiro[cyclobutane-1,2′-pyrano[2,3-c]pyridin]-4′-yl)amino)-2-hydroxypropyl)acetamide N-((1S,2R)-1-(1,3-benzodioxol-5-ylmethyl)-3-(((1s,3S,4′S)-6′-(2,2-dimethylpropyl)-3-hydroxy-3′,4′-dihydrospiro[cyclobutane-1,2′-pyrano[2,3-c]pyridin]-4′-yl)amino)-2-hydroxypropyl)acetamide [compound 264]”, the IC50 in assay [1] (setting [7]) was 0.0422 µM; in assay [2] (setting [8]), 0.0688 µM.
Regarding `COCC(=O)NC(Cc1cccc(F)c1)C(O)CNC1CC2(CC(O)C2)Oc2cnccc21` [compound 235, N-((1S,2R)-1-((3-fluorophenyl)methyl)-2-hydroxy-3-(((1s,3S,4′S)-3-hydroxy-3′,4′-dihydrospiro[cyclobutane-1,2′-pyrano[2,3-c]pyridin]-4′-yl)amino)propyl)-2-(methyloxy)acetamide], the IC50 in assay [1] (setting [7]) was 0.581 µM; in assay [2] (setting [6]), 0.452 µM.
Regarding `COCC(=O)NC(Cc1cc(F)cc(F)c1)C(O)CNC1CC2(CCC2)Oc2ncc(C(O)C(F)(F)F)cc21` (stereo not shown) [compound 349], the IC50 in assay [1] (setting [3]) is 0.166 µM; in assay [2] (setting [4]), 0.139 µM.
For `COCC(=O)N[C@@H](Cc1ccc2c(c1)OCO2)[C@H](O)CN[C@H]1CC2(CCC2)Oc2ncc(C[C@@H](C)C(F)(F)F)cc21` [compound 341], the values for the IC50 in assay [1] (setting [3]) and in assay [2] (setting [4]) were 0.0595 µM and 0.138 µM, respectively.
For `CC(F)(F)Oc1cnc2c(c1)[C@@H](NC[C@@H](O)[C@H](Cc1cccc(F)c1)NC(=O)[C@@H]1CCC(=O)O1)CC1(CCC1)O2` [compound 152], the IC50 amounted to 0.0106 µM in assay [1] (setting [5]) and 0.0336 µM in assay [2] (setting [6]).
For the molecule `COCC(=O)N[C@@H](Cc1ccc(F)cc1)[C@H](O)CN[C@H]1CC2(CCC2)Oc2ncc(CCC(F)(F)F)cc21` [compound 193], the IC50 in assay [1] (setting [7]) was 0.202 µM; in assay [2] (setting [6]), 0.518 µM.
Consider `CC(=O)N[C@@H](Cc1ccc2c(c1)OCO2)[C@H](O)CN[C@H]1CC2(CCC2)Oc2c(F)cc(CC(C)(C)C)cc21` [compound 170], for which the IC50 was 0.0125 µM in assay [1] (setting [5]) and 0.0535 µM in assay [2] (setting [6]).
As for `CO[C@@H](C(=O)N[C@@H](Cc1ccc(F)cc1)[C@H](O)CN[C@H]1CC2(CCC2)Oc2ncc(CC(C)(C)C)cc21)C(F)(F)F` [compound 63], the values for the IC50 in assay [1] (setting [5]) and in assay [2] (setting [6]) were 0.258 µM and 0.128 µM, respectively.
In the case of `CC(=O)N[C@@H](Cc1ccccc1)[C@H](O)CN[C@H]1CC2(CCC2)Oc2ncc(C[C@H](C)C(F)(F)F)cc21` [compound 316], the values for the IC50 in assay [1] (setting [3]) and in assay [2] (setting [4]) were 0.0136 µM and 0.0497 µM, respectively.
For the molecule `CC(=O)N[C@@H](Cc1cccc(F)c1)[C@H](O)CN[C@H]1CC2(CCC2)Oc2ncc(C[C@H](C)C(F)(F)F)cc21` [compound 314], the IC50 in assay [1] (setting [7]) was 0.00419 µM; in assay [2] (setting [6]), 0.0113 µM.
Turning to `COCC(=O)N[C@@H](Cc1cc(Br)c2c(c1)OCO2)[C@H](O)CN[C@H]1CC2(CCC2)Oc2ncc(CC(C)(C)F)cc21` [compound 211], the IC50 amounted to 0.423 µM in assay [1] (setting [7]) and 0.312 µM in assay [2] (setting [6]).
In the case of `COCC(=O)N[C@@H](Cc1cccc(F)c1)[C@H](O)CN[C@H]1CC2(CCC2)Oc2c(F)cc(CC(C)(C)C)cc21` [compound 221], the IC50 in assay [1] (setting [7]) was 0.0137 µM; in assay [2] (setting [6]) it was 0.0444 µM.
As for `CO[C@H](C)C(=O)N[C@@H](Cc1cc(Cl)c2c(c1)OCO2)[C@H](O)CN[C@H]1CC2(CCC2)Oc2ncc(CC(C)(C)C)cc21` [compound 209], the results for the IC50 in assay [1] (setting [7]) and in assay [2] (setting [6]) were 0.0122 µM and 0.0181 µM, respectively.
As for `COCC(=O)N[C@@H](Cc1ccc2c(c1)OCO2)[C@H](O)CN[C@H]1CC2(CCC2)Oc2ncc(CC(C)(C)CF)cc21` [compound 181], the IC50 in assay [1] (setting [5]) turned out to be 0.0155 µM; in assay [2] (setting [6]), 0.0176 µM.
Consider `COCC(=O)NC(Cc1ccc2c(c1)OCO2)C(O)CNC1CC2(CC(F)C2)Oc2ncc(CC(C)(C)C)cc21` [compound 240, N-((1S,2R)-1-(1,3-benzodioxol-5-ylmethyl)-3-(((1s,3S,4′S)-6′-(2,2-dimethylpropyl)-3-fluoro-3′,4′-dihydrospiro[cyclobutane-1,2′-pyrano[2,3-b]pyridin]-4′-yl)amino)-2-hydroxypropyl)-2-(methyloxy)acetamide], for which the results for the IC50 in assay [1] (setting [7]) and in assay [2] (setting [6]) were 0.087 µM and 0.108 µM, respectively.
In the case of `COCC(=O)N[C@@H](Cc1ccc2c(c1)OCO2)[C@H](O)CN[C@H]1CC2(CCC2)Oc2c1cc(CC(C)(C)C)nc2N1CCCC1` [compound 130], the IC50 in assay [1] (setting [5]) came out at 0.0541 µM; in assay [2] (setting [6]) it was 0.055 µM.
`COCC(=O)NC(Cc1ccc(Cl)cc1)C(O)CNC1CC2(CC(O)C2)Oc2ncc(CC(C)(C)C)cc21` [compound 234, N-((1S,2R)-1-((4-chlorophenyl)methyl)-3-(((1s,3S,4′S)-6′-(2,2-dimethylpropyl)-3-hydroxy-3′,4′-dihydrospiro[cyclobutane-1,2′-pyrano[2,3-b]pyridin]-4′-yl)amino)-2-hydroxypropyl)-2-(methyloxy)acetamide]: the IC50 in assay [1] (setting [7]) is 0.00404 µM; in assay [2] (setting [6]), 0.0135 µM.
With `COCC(=O)N[C@@H](Cc1ccc2c(c1)OCO2)[C@H](O)CN[C@H]1CC2(CCC2)Oc2ccc(CC(C)(C)C)cc21` [compound 290], the results for the IC50 in assay [1] (setting [7]) and in assay [2] (setting [6]) were 0.0231 µM and 0.0549 µM, respectively.
For `CC(=O)N[C@@H](Cc1cc(Br)c2c(c1)OCO2)[C@H](O)CN[C@H]1CC2(CCC2)Oc2ncc(CC(C)(C)C)cc21` [compound 203], in that order: 0.00284 µM and 0.0211 µM.
Consider `CO[C@H](C)C(=O)N[C@@H](Cc1cc(F)cc(F)c1)[C@H](O)CN[C@H]1CC2(CCC2)Oc2ncc(CC(F)(F)F)cc21` [compound 346], for which the IC50 in assay [1] (setting [3]) turned out to be 0.0102 µM; in assay [2] (setting [4]), 0.0471 µM.
